Test results as given in patent publication US9127079B2, “Inhibitors of phosphatase and tensin homolog (PTEN) conjugates” (THE UNIVERSITY OF BRITISH COLUMBIA, priority 2009, dated 2015).

What was measured:
Type in all cases: cell-based, rat
[1] = system: cultured hippocampal neurons; assay: Neuronal death by nuclei staining (Hoechst 33342), NMDA excitotoxicity; conditions: NMDA 20 uM, 1 hour
Description: (§1) Dissociated cultures of rat cortical or hippocampal neurons were prepared from 18-d-old Sprague Dawley rat embryos as described previously (Mielke and Wang 2005). To obtain mixed cultures enriched with neurons, uridine (10 μM) and 5-Fluor-T-deoxyuridine (10 μM) were added to the culture medium at 3 d in vitro (DIV) and maintained for 48 h to inhibit non-neuronal cell proliferation before the cultures were returned to the normal culture medium. Mature neurons (12-14 DIV) were used for experiments. […]
(§2) Necrotic neuronal death was quantified by measuring lactate dehydrogenase (LDH) release 20 h after treatments using a Cyto Tox™ 96 assay kit (Promega™, Madison, Wis.). Absorbance readings were measured using a spectrophotometric microplate reader. Apoptotic neuronal death was determined by visualizing the nucleus condensation and fragmentation of neurons stained with Hoechst-33342™. Images were taken with a Leica DMIRE2™ fluorescence microscope. […] These observations were quantified by double-blind counting of apoptotic and total neurons in each visual field and expressed as percentage apoptosis. […] Data are expressed as the difference in apoptosis relative to control and are expressed as a percentage.

[2] = system: cultured hippocampal neurons; assay: Neuronal death by LDH assay, NMDA excitotoxicity; conditions: NMDA 20 uM, 1 hour
Description: as §1, §2

nuclear PIP3 = assay: Level of nuclear PIP3 after NMDA treatment
Description: (§3) Dissociated cultures of rat cortical or hippocampal neurons were prepared from 18-d-old Sprague Dawley rat embryos as described previously (Mielke and Wang 2005). To obtain mixed cultures enriched with neurons, uridine (10 μM) and 5-Fluor-T-deoxyuridine (10 μM) were added to the culture medium at 3 d in vitro (DIV) and maintained for 48 h to inhibit non-neuronal cell proliferation before the cultures were returned to the normal culture medium. Mature neurons (12-14 DIV) were used for experiments.
(§4) In order to induce excitotoxicity, 12-14 DIV cultured neurons were washed and transferred to Mg2+-free extracellular solution (ECS) containing the following (in mM): 25 HEPES acid, 140 NaCl, 33 glucose, 5.4 KCl, and 1.3 CaCl2, with pH 7.35 and osmolarity 320-330 mOsm. ECS and subjected to NMDA-induced excitotoxicity (20 μM NMDA, 10 μM glycine, 60 min at room temperature) or any other experimental conditions as indicated in the texts. Cells were then washed twice with normal ECS, and returned to the original growth conditions until additional assay.
Nuclear extracts were isolated from control and NMDA-treated cell cultures (10^8 cells) using the Panomics™ nuclear extraction kit (Panomics™; catalog number AY2002) as recommended by the manufacturer.

PTEN [3] = assay: Immunostaining of endogenous PTEN: nuclear translocation in cultured neurons with NMDA; conditions: peptide 10 uM, NMDA stimulation
Description: as §3, §4

PTEN [4] = assay: Western blotting of nuclear fractions from cultured neurons: PTEN nuclear translocation; conditions: NMDA stimulation
Description: as §3
In order to induce excitotoxicity, 12-14 DIV cultured neurons were washed and transferred to Mg2+-free extracellular solution (ECS) containing the following (in mM): 25 HEPES acid, 140 NaCl, 33 glucose, 5.4 KCl, and 1.3 CaCl2, with pH 7.35 and osmolarity 320-330 mOsm. […]
For western blotting, 10 μg of the nuclear extract or 40 μg of total cell lysate (solubilized by 1% SDS, 1 mM EGTA, 1 mM EDTA, 1 mM DTT, 2 mM sodium orthovanadate, and protease inhibitors cocktail in PBS) from each treatment condition was separated with SDS-PAGE, transferred onto a polyvinylidene difluoride (PVDF) membrane, and probed with the relevant antibodies. […] Band intensities were quantified using NIH ImageJ™ software and normalized to the quantity of a nuclear marker or β-tubulin in each sample lane.

Compound | cell death, nuclei staining [1] | cell death, LDH assay [2] | level of nuclear PIP3 (nuclear PIP3) | PTEN nuclear translocation (endogenous PTEN immunostaining) (PTEN [3]) | PTEN nuclear translocation (western blotting of nuclear fractions) (PTEN [4])
CN[C@H](CC(=O)O)C(=O)O [NMDA, N-methyl-D-asparate] | significant cell death | significant cell death | reduced the level of nuclear PIP3 | – | –
YGRKKRRQRRR-PEETSEKVENGS (YGRKKRRQRRRPEETSEKVENGS; PTEN K289 interference peptide conjugated to TAT protein transduction domain) [Peptide-K289, TAT protein transduction domain fused to PTEN K289 interference peptide; control for Peptide-K13] | – | – | – | failed to do so | failed to do so
